The values below come from ChEMBL document CHEMBL1141768, “Constituents of Vittaria anguste-elongata and their biological activities” (J Nat Prod, 2005).

What all share (assay type): functional
Experiment [1] concerns Radical scavenging activity. Briefly: Antioxidant activity assessed as DPPH free radical scavenging activity after 30 mins. For orientation: The DPPH test is a chemical assay of radical scavenging.
The test system of experiment [2] is NCI-H460. Briefly: Cytotoxicity against human NCI-H460 cells at 58 uM.
Experiment [3] relates to SF-268. Kind of experiment: Cytotoxicity against human SF268 cells at 58 uM.

Consider `CCOC(=O)[C@]1(O)C[C@@H](O)[C@H](OC(=O)/C=C/c2ccc(O)c(O)c2)[C@H](O)C1`, for which the IC50 – broadly, the concentration that gives 50% inhibition – in experiment [1] stood at 234 µM.
On the same count and under the same terms, under `C[C@H]1OC(=O)[C@@H](O)[C@@H]1OC(=O)/C=C/c1ccc(O)c(O)c1` stands 290 µM.
Regarding `COc1cc(-c2cc(=O)c3c(O)cc(O)cc3o2)cc(OC)c1OC`, the inhibition – broadly, the relative decrease from the control value, in per cent – at 58 µM came to 89% in experiment [2] and 61% in experiment [3].
With `O=C(/C=C/c1ccc(O)c(O)c1)OC[C@H](O)[C@H]1OC(=O)[C@H](O)[C@H]1O`, the IC50 in experiment [1] turned out to be 91 µM.
Regarding VITAMIN E, the IC50 in experiment [1] turned out to be 350 µM.
